Read-outs that look alike come from different tables or passages of the source.
Key:
[1] = tested on: HCV replicon (Genotype 1b); assay: Luciferase genotype 1b replicon potency assay; settings: Hepatitis C virus
[2] = in vitro; settings: human
[3] = GETYPE1B, read-out: IC50 μM, HCV genotype 1b luciferase replicon, Renilla luciferase reporter

| SMILES | IC50 [1, 3] | CC50 [2] | IC50 ([1]; read-out: IC50 μM) |
| --- | --- | --- | --- |
| CCCOC(=O)[C@@H](NP(=O)(OC[C@H]1OC(n2cnc3c(OC)nc(N)nc32)[C@](C)(O)[C@@H]1O)Oc1cccc2ccccc12)c1ccccc1 (stereo partly drawn) [Example 65] | 0.086 µM | – | – |
| COc1nc(N)nc2c1ncn2C1O[C@H](COP(=O)(N[C@H](C(=O)OCC(C)(C)C)C(C)C)Oc2ccc3ncccc3c2)[C@@H](O)[C@@]1(C)O (stereo partly drawn) [Example 52, (2S)-neopentyl 2-((((2R,3R,4R)-5-(2-amino-6-methoxy-9H-purin-9-yl)-3,4-dihydroxy-4-methyltetrahydrofuran-2-yl)methoxy)(quinolin-6-yloxy)phosphorylamino)-3-methylbutanoate] | 0.19 µM | > 100 µM | – |
| COc1nc(N)nc2c1ncn2C1O[C@H](COP(=O)(N[C@H](C(=O)OCc2ccccc2)c2ccccc2)Oc2cccc3ccccc23)[C@@H](O)[C@@]1(C)O (stereo partly drawn) [Example 63] | 0.028 µM | 50 µM | – |
| COc1nc(N)nc2c1ncn2C1O[C@H](COP(=O)(N[C@@H](C)C(=O)OC2CCOCC2)Oc2cccc3ncccc23)[C@@H](O)[C@@]1(C)O (stereo partly drawn) [Example 32, (2S)-tetrahydro-2H-pyran-4-yl 2-((((2R,3R,4R)-5-(2-amino-6-methoxy-9H-purin-9-yl)-3,4-dihydroxy-4-methyltetrahydrofuran-2-yl)methoxy)(quinolin-5-yloxy)phosphorylamino)propanoate] | 1.2 µM | > 100 µM | – |
| COc1nc(N)nc2c1ncn2C1O[C@H](COP(=O)(N[C@@H](C)C(=O)OC2CCCC2)Oc2cccc3ccccc23)[C@@H](O)[C@@]1(C)O (stereo partly drawn) [Example 24, (2S)-cyclopentyl 2-((((2R,3R,4R)-5-(2-amino-6-methoxy-9H-purin-9-yl)-3,4-dihydroxy-4-methyltetrahydrofuran-2-yl)methoxy)(naphthalen-1-yloxy)phosphorylamino)propanoate] | 0.02 µM | 9 µM | – |
| COC(=O)[C@@H](NP(=O)(OC[C@H]1OC(n2cnc3c(OC)nc(N)nc32)[C@](C)(O)[C@@H]1O)Oc1cccc2ccccc12)c1ccccc1 (stereo partly drawn) [Example 64] | 0.49 µM | > 100 µM | – |
| COc1nc(N)nc2c1ncn2C1O[C@H](COP(=O)(N[C@@H](C)C(=O)OC2Cc3ccccc3C2)Oc2cccc3ccccc23)[C@@H](O)[C@@]1(C)O (stereo partly drawn) [Example 16, (2S)-2,3-dihydro-1H-inden-2-yl 2-((((2R,3R,4R)-5-(2-amino-6-methoxy-9H-purin-9-yl)-3,4-dihydroxy-4-methyltetrahydrofuran-2-yl)methoxy) (naphthalen-1-yloxy)phosphorylamino)propanoate] | 0.027 µM | 11 µM | – |
| COc1nc(N)nc2c1ncn2[C@@H]1O[C@H](COP(=O)(N[C@@H](CC(C)C)C(=O)OCC(C)(C)C)Oc2cccc3ccccc23)[C@@H](O)[C@@]1(C)O (stereo partly drawn) [Example 61] | 0.071 µM | 14 µM | – |
| COc1nc(N)nc2c1ncn2C1O[C@H](COP(=O)(N[C@H](C(=O)OCc2ccc(F)cc2F)C(C)C)Oc2cccc3ncccc23)[C@@H](O)[C@@]1(C)O (stereo partly drawn) [Example 49, (2S)-2,4-difluorobenzyl 2-((((2R,3R,4R)-5-(2-amino-6-methoxy-9H-purin-9-yl)-3,4-dihydroxy-4-methyltetrahydrofuran-2-yl)methoxy)(quinolin-5-yloxy)phosphorylamino)-3-methylbutanoate] | 0.17 µM | > 100 µM | – |
| CNc1nc(N)nc2c1ncn2C1O[C@H](COP(=O)(N[C@@H](C)C(=O)OCC(C)(C)C)Oc2cccc3ccccc23)[C@@H](O)[C@@]1(C)O (stereo partly drawn) [Example 81, (2S)-neopentyl 2-((((2R,3R,4R)-5-(2-amino-6-(methylamino)-9H-purin-9-yl)-3,4-dihydroxy-4-methyltetrahydrofuran-2-yl)methoxy)(naphthalen-1-yloxy)phosphorylamino)propanoate] | – | 48 µM | 0.033 µM |
| COc1nc(N)nc2c1ncn2C1O[C@H](COP(=O)(N[C@@H](C)C(=O)OCCC(C)(C)C)Oc2cccc3ccccc23)[C@@H](O)[C@@]1(C)O (stereo partly drawn) [Example 18, (2S)-3,3-dimethylbutyl 2-((((2R,3R,4R)-5-(2-amino-6-methoxy-9H-purin-9-yl)-3,4-dihydroxy-4-methyltetrahydrofuran-2-yl)methoxy)(naphthalen-1-yloxy)phosphorylamino)propanoate] | 0.013 µM | 7.6 µM | – |
| COc1nc(N)nc2c1ncn2C1O[C@H](COP(=O)(N[C@@H](CCSC)C(=O)O[C@@H](C)c2ccccc2)Oc2cccc3ccccc23)[C@@H](O)[C@@]1(C)O (stereo partly drawn) [Example 59, (2S)-((S)-1-phenylethyl) 2-((((2R,3R,4R)-5-(2-amino-6-methoxy-9H-purin-9-yl)-3,4-dihydroxy-4-methyltetrahydrofuran-2-yl)methoxy)(naphthalen-1-yloxy)phosphorylamino)-4-(methylthio)butanoate] | 0.32 µM | 30 µM | – |
| COc1nc(N)nc2c1ncn2C1O[C@H](CO[P@](=O)(N[C@@H](C)C(=O)OCC(C)(C)C)Oc2cccc3ccccc23)[C@@H](O)[C@@]1(C)O (single isomer, unassigned) [Example 22] | 0.019 µM | 6 µM | – |
| COc1nc(N)nc2c1ncn2C1O[C@H](COP(=O)(N[C@@H](C(=O)OCC(C)(C)C)c2ccccc2)Oc2cccc3ccccc23)[C@@H](O)[C@@]1(C)O (stereo partly drawn) [Example 70, (2R)-neopentyl 2-((((2R,3R,4R)-5-(2-amino-6-methoxy-9H-purin-9-yl)-3,4-dihydroxy-4-methyltetrahydrofuran-2-yl)methoxy)(naphthalen-1-yloxy)phosphorylamino)-2-phenylacetate] | 0.077 µM | 38 µM | – |
| COc1nc(N)nc2c1ncn2C1O[C@H](COP(=O)(N[C@H](C(=O)OCc2ccc(F)cc2F)C(C)C)Oc2cccc3ccccc23)[C@@H](O)[C@@]1(C)O (stereo partly drawn) [Example 37] | 0.043 µM | 16 µM | – |
| CCOc1nc(N)nc2c1ncn2C1O[C@H](COP(=O)(N[C@@H](C)C(=O)OC(C)C)Oc2cccc3ccccc23)[C@@H](O)[C@@]1(C)O (stereo partly drawn) [Example 77, (2S)-isopropyl 2-((((2R,3R,4R)-5-(2-amino-6-ethoxy-9H-purin-9-yl)-3,4-dihydroxy-4-methyltetrahydrofuran-2-yl)methoxy)(naphthalen-1-yloxy)phosphorylamino)propanoate] | 0.11 µM | 40 µM | – |
| C[C@@]1(O)[C@H](O)[C@@H](CO)O[C@H]1n1cnc2c(NCCc3ccccc3)nc(N)nc21 [Example 86, (3R,4R,5R)-2-(2-amino-6-(phenethylamino)-9H-purin-9-yl)-5-(hydroxymethyl)-3-methyltetrahydrofuran-3,4-diol] | 23.6 µM | – | – |
| COc1nc(N)nc2c1ncn2C1O[C@H](COP(=O)(N[C@@H](C)C(=O)OC2CCOCC2)Oc2cccc3ccccc23)[C@@H](O)[C@@]1(C)O (stereo partly drawn) [Example 26, (2S)-tetrahydro-2H-pyran-4-yl 2-((((2R,3R,4R)-5-(2-amino-6-methoxy-9H-purin-9-yl)-3,4-dihydroxy-4-methyltetrahydrofuran-2-yl)methoxy)(naphthalen-1-yloxy)phosphorylamino)propanoate] | 0.08 µM | 130 µM | – |
| CSc1nc(N)nc2c1ncn2C1O[C@H](COP(=O)(N[C@@H](C)C(=O)OCC(C)(C)C)Oc2cccc3ccccc23)[C@@H](O)[C@@]1(C)O (stereo partly drawn) [Example 90, (2S)-neopentyl 2-((((2R,3R,4R)-5-(2-amino-6-(methylthio)-9H-purin-9-yl)-3,4-dihydroxy-4-methyltetrahydrofuran-2-yl)methoxy)(naphthalen-1-yloxy)phosphorylamino)propanoate] | 0.033 µM | 41 µM | – |
| COc1nc(N)nc2c1ncn2C1O[C@H](COP(=O)(N[C@@H](C)C(=O)OCc2ccccc2)Oc2cccc3ccccc23)C[C@@]1(C)O (stereo partly drawn) [Example 95, (2S)-benzyl 2-((((2S,4R)-5-(2-amino-6-methoxy-9H-purin-9-yl)-4-hydroxy-4-methyltetrahydrofuran-2-yl)methoxy)(naphthalen-1-yloxy)phosphorylamino)propanoate] | 0.9 µM | 70 µM | – |
| COc1nc(N)nc2c1ncn2C1O[C@H](COP(=O)(N[C@@H](C)C(=O)OCC(C)(C)C)Oc2cccc3ccccc23)C[C@@]1(C)O (stereo partly drawn) [Example 97, (2S)-neopentyl 2-((((2S,4R)-5-(2-amino-6-methoxy-9H-purin-9-yl)-4-hydroxy-4-methyltetrahydrofuran-2-yl)methoxy)(naphthalen-1-yloxy)phosphorylamino)propanoate] | > 10 µM | 44 µM | – |
| COc1nc(N)nc2c1ncn2C1O[C@H](COP(=O)(N[C@H](C(=O)OCC(C)(C)C)C(C)C)Oc2cc(C(C)(C)C)cc3ccccc23)[C@@H](O)[C@@]1(C)O (stereo partly drawn) [Example 55] | 2.1 µM | 13 µM | – |
| CCOc1nc(N)nc2c1ncn2C1O[C@H](COP(=O)(N[C@@H](C)C(=O)OC2CCOCC2)Oc2cccc3ccccc23)[C@@H](O)[C@@]1(C)O (stereo partly drawn) [Example 78, (2S)-tetrahydro-2H-pyran-4-yl 2-((((2R,3R,4R)-5-(2-amino-6-ethoxy-9H-purin-9-yl)-3,4-dihydroxy-4-methyltetrahydrofuran-2-yl)methoxy)(naphthalen-1-yloxy)phosphorylamino)propanoate] | 0.059 µM | 47 µM | – |
| CCC(C)[C@H](NP(=O)(OC[C@H]1OC(n2cnc3c(OC)nc(N)nc32)[C@](C)(O)[C@@H]1O)Oc1cccc2ccccc12)C(=O)OCC(C)(C)C (stereo partly drawn) [Example 62] | 0.86 µM | 18 µM | – |
| COc1nc(N)nc2c1ncn2C1O[C@H](COP(=O)(N[C@@H](C(=O)OCc2ccccc2)c2ccccc2)Oc2cccc3ccccc23)[C@@H](O)[C@@]1(C)O (stereo partly drawn) [compound 68] | – | 50 µM | – |
| COc1nc(N)nc2c1ncn2C1O[C@H](COP(=O)(N[C@@H](CCSC)C(=O)OCc2ccccc2)Oc2cccc3ccccc23)[C@@H](O)[C@@]1(C)O (stereo partly drawn) [Example 58, (2S)-benzyl 2-((((2R,3R,4R)-5-(2-amino-6-methoxy-9H-purin-9-yl)-3,4-dihydroxy-4-methyltetrahydrofuran-2-yl)methoxy)(naphthalen-1-yloxy)phosphorylamino)-4-(methylthio)butanoate] | 0.22 µM | – | – |

From patent US8759318B2, “Phosphoramidate derivatives of guanosine nucleoside compounds for treatment of viral infections” (Inhibitex, Inc., priority 2009, dated 2014)
